Laboratory results as given in patent US20210317113A1, “1,2,3-TRIAZOLE DERIVATIVES AND USES THEREOF” (Alxerion Biotech LLC, priority 2020, published 2021).
Where two headings read alike, the source gives them in different places.

What was measured:
[1] = tested on: Non-Small Lung Cancer Cells (NSLCs); assay: Cancer migration (wound healing) assay; assay type: cell-based; conditions: for concentration at which cell migration was completely impaired: 20 mM calcium medium (FIG. 3)
Text: The ability of 1,2,3-triazole derivatives according to the disclosure to inhibit cancer cell migration and proliferation in vitro can be measured, e.g., by a wound healing assay (Rodriguez et al., in Cell Migration: Developmental Methods and Protocols, Web et al., Guan ed. Humana Press 294, 23-29). This assay is based on the observation that, upon the creation of an artificial gap on a confluent cancer cell monolayer, the cells on the edge of the created gap will start migrating and proliferating until new cell-cell contacts are established (EXAMPLE 3).
Non-Small Lung Cancer Cells (NSLCs) migration rate was assessed in an in vitro wound healing assay. This assay is based on the observation that, upon the creation of an artificial gap on a confluent cell monolayer, the cells on the edge of the created gap will start migrating and proliferating until new cell-cell contacts are established.
A confluent cell layer is a prerequisite for starting this assay. Gap formation is done manually with a scrapper and cell proliferation and migration is determined recording a time-lapse video for 20 hr. with a time interval of 30 min. The microscopic pictures are manually analyzed for obtaining information about the proliferation and migration characteristics of the cultured cells and the image analysis detects the cell covered area.
NSLCs were cultured in Eagle's Minimum Essential Medium (ATCC-formulated medium, Catalog No. 30-2003) containing fetal bovine serum at 10% during several periods. Wound healing assays with supplemented medium containing 1,2,3-triazole derivatives were performed to evaluate the inhibitory effect on proliferation and migration of cancer cells.
In order to simulate as close as possible the in vivo cancer microenvironment, human plasma and calcium were added to the cell culture system to provide the hemostatic factors normally present in the cancer stroma. The previous day, cells were seeded with 10% FBS at a number that would provide 90% confluence the next day. On Day 0, a scratch (“a wound”) was performed in the middle of the well and the 10% FBS medium was replaced with 20% plasma, 20 mM calcium medium, with or without Derivative 1. 10% FBS medium was used as control in these experiments. “Wound healing” or closure of the scratch was assessed over a period of 4 days, and cell number in the wound area was quantified for each condition. Increasing amount of Derivative 1 (LTI6) was used to attain a dose-response curve.
The cell function effect of Derivative 1 was compared with Tranexamic Acid (TNA) and Caproic Acid (CA), commercially available and widely used anti-metastasis drugs.

[2] = tested on: fibrinolysis mediated by tPA (plasminogen activation by tPA); assay: Fibrinolytic assay: one-step spectrophotometric clot lysis in human plasma; assay type: biochemical; conditions: for IC50: concentration at which 50% of total fibrinolysis mediated by tPA is inhibited, human ACD plasma, clot triggered by TF, absorbance 340 nm, read-out: Anti-fibrinolytic (SERPIN) Activity IC50; for inhibition of fibrinolysis mediated by tPA (in words): different concentrations, FIGS. 2B-2D
Method: Fibrinolytic activity in human plasma was determined by a one-step spectrophotometric method (Gidron et al. (1978) J. Clin. Pathol. 31(1):54-57) with minor modifications (see EXAMPLE 2). In this method, fibrin clot formation in anticoagulant citrate dextrose (ACD) plasma samples obtained from healthy volunteers is triggered by tissue factor (TF) and can be quantified by spectrometry as a significant increase in basal plasma absorbance at 340 nm.
As shown in FIGS. 2A-2D, in the absence of tPA, plasma absorbance remains permanently elevated.
Fibrinolytic activity in human plasmas in the presence of derivatives according to the disclosure was determined by a one-step spectrophotometric method.
Fibrin clot formation in the anticoagulant acid citrate dextrose (ACD)-treated plasma obtained from healthy volunteers is triggered by tissue factor (TF) (Thromborel S, Siemens Healthineers) and quantifies by spectrophotometry at 340 nm (using a Molecular Devices SpectraMax® M2e Multimode Microplate Reader). When recombinant human Tissue Plasminogen Activator (tPA, final concentration of 5.2 μg/ml) is simultaneously added, fibrinolysis of the clot can be determined.
Fresh blood was extracted from healthy volunteers. ACD, to reach a 10% concentration, was instantly added to the extracted blood, to prevent any unwanted coagulation. After that, blood was centrifuged for 15 min at 1,000 g. Plasma was clearly separated from red blood cells. 3 mL aliquots of aspirated plasma were immediately frozen at −20° C.
4 mL of ddH2O was added to a vial of Thromborel S and mixed thoroughly for 2 min. and left at 4° C. 500 μL TF aliquots were used for each experiment.
Representative derivatives of the present disclosure (Nos. 1, 5, and 7) were diluted in DMSO (those with Boc) or ddH2O (those with HCl) to a final concentration of 10 mM. A solution containing 1 M Tris HCl, pH 7.5 (Fisher BioReagent) (Buffer A), 0.110 g of CaCl2) in 10 mL of ddH2O (Buffer B), and tPA (Abcam, 1.3 mg/mL added into the diluted derivative solution, final concentration in serum was 5.2 μg/mL), and the derivative was prepared in a total volume of 75 μL and added to untreated, flat, clear Costar® 96-well plates in triplicate. Absorbance at 340 nm at 37° C. for 30 min was recorded every 15 sec. The plates were shaken every 3 sec in between readings. Controls for basal plasma absorbance, basal coagulation absorbance and basal fibrinolytic activity absorbance were performed in every assay.
FIG. 2A show the results a control experiment displaying the ability of TF to cause fibrin clot formation in the absence and presence of t-PA. TF was able to cause fibrin clot formation evaluated as a significant increase of the basal plasma absorbance at 340 nm.

[3] = tested on: Non-Small Lung Cancer Cells (NSLCs); assay: Trypan Blue Exclusion Test of cancer cell viability; assay type: cell-based; conditions: for IC50: defined in text as concentration of derivative causing greater than 90% of the cells to die, read-out: Anti-Cancer Activity (Trypan Blue Exclusion Assay) IC50
Method: The ability of 1,2,3-triazole derivatives according to the disclosure to kill cancer cells can be measured, e.g., by Trypan Blue Exclusion Assay which measured cell death by starvation due to the presence of the derivative (see EXAMPLE 4). The results obtained using this assay with some representative 1,2,3-triazole derivatives according to the disclosure are shown below in Table 4.
The effect of Derivative 1 on cancer cell viability was determined using the Trypan Blue Exclusion Test (Stober (2001) (Curr. Protoc. Immunol., May; Appendix 3:Appendix 3B. doi: 10.1002/0471142735.ima03bs21). The viability of Non-Small Lung Cancer Cells (NSLCs) was assessed over a period of 15 days after the promotion of coagulation with or without 200 μM of 1,2,3-triazole derivative 1 and with or without 2% human plasma. Fresh 2% FBS medium corresponding to each condition was added every 3 days. Cell death was analyzed using Trypan blue staining. 2% FBS medium was used as control. Some representative results are shown in FIGS. 4A-4F.

[4] = wound healing assay, dose-response curve, read-out: Anti-Cancer Activity (Inhibition of Cancer Cell Migration) IC50
[5] = 96 h, NSLCs, 20% plasma, 20 mM calcium medium, wound closure over 4 days (FIG. 3), read-out: IC50 from dose response curve, cell migration

| IC50 [1, 4] [µM] | IC50 [2] [µM] | IC50 [3] [µM] | SMILES | also measured |
| --- | --- | --- | --- | --- |
| 450 | 290 | 670 | N=C(N)c1cn(C2CCC(N)CC2)nn1 (stereo not drawn) [Derivative 35] | – |
| 310 | 189 | 480 | N/C(Cc1cn(C2CCC(N)CC2)nn1)=N/O (stereo not drawn) [Derivative 27] | – |
| 220 | 101 | 350 | N=C(N)c1cn(CCCN)nn1 [Derivative 34] | – |
| 69 | 23 | 140 | NCCn1cc(C/C(N)=N\O)nn1 [Derivative 28] | – |
| 129 | 67 | 218 | NC1CCC(n2cc(C(=O)O)nn2)CC1 (stereo not drawn) [Derivative 29] | – |
| 420 | 205 | 610 | N/C(=N\O)c1cn(C2CCC(N)CC2)nn1 (stereo not drawn) [Derivative 25] | – |
| 101 | 35 | 101 | NCCn1ccnn1 [Derivative 32] | – |
| 65 | 25 | 110 | O=c1[nH]nc(-c2cn(C3CCNCC3)nn2)o1 [compound 12, 5-(1-(piperidin-4-yl)-1H-1,2,3-triazol-4-yl)-1,3,4-oxadiazol-2(3H)-one] | – |
| 258 | 153 | 470 | NCCn1cc(/C(N)=N/O)nn1 [Derivative 26] | – |
| 278 | 119 | 415 | N=C(N)c1cn(CCN)nn1 [Derivative 36] | – |
| 190 | 74 | 310 | NC1CCC(n2ccnn2)CC1 (stereo not drawn) [Derivative 31] | – |
| 82 | 29 | 184 | N=C(N)c1cn(C2CCNCC2)nn1 [Derivative 33] | – |
| 820 | 500 | 1100 | O=c1[nH]c(-c2cn(C3CCNCC3)nn2)no1 [compound 9, 3-(1-(piperidin-4-yl)-1H-1,2,3-triazol-4-yl)-1,2,4-oxadiazol-5(4H)-one] | – |

The next lines start with the molecule.

| SMILES | IC50 [1, 4] [µM] | IC50 [2] [µM] | IC50 [3] [µM] | also measured |
| --- | --- | --- | --- | --- |
| NNC(=O)c1cn(C2CCC(N)CC2)nn1 (stereo not drawn) [Derivative 16] | 250 | 58 | 430 | – |
| NCCCn1ccnn1 [Derivative 14] | 250 | 130 | 450 | – |
| NCCCn1cc(C/C(N)=N\O)nn1 [Derivative 11] | 510 | 325 | 680 | – |
| O=c1[nH]nc(-c2cn(C3CCNCC3)nn2)o1 [Derivative 1] | 120 | – | – | IC50 [1, 5]: 96.1 µM; concentration at which cell migration was completely impaired ([1]; NSLCs, 20% plasma): 100 µM; potency relative to CA in inhibition of migration of cancer cells ([1]; from IC50 values, vs Caproic Acid): > 10 ×; potency relative to TNA in inhibition of migration of cancer cells ([1]; from IC50 values, vs Tranexamic Acid): > 4 ×; IC50 ([2]; listed as 1): 50 µM; inhibition of fibrinolysis mediated by tPA (in words) [2]: completely inhibit fibrinolysis; cell death by Trypan blue staining after 7 days (in words) ([3]; 200 μM, plasma conditions, 7 days, vs plasma alone (FIG. 4C)): even more significant; cell death by Trypan blue staining after 15 days (in words) ([3]; 200 μM, plasma conditions, 15 days, vs FBS and plasma alone (FIG. 4F)): increased cell death; IC50 ([3]; listed as 1): 250 µM |
| NCCCn1cc(-c2n[nH]c(=O)o2)nn1 [Derivative 2] | 350 | 200 | 550 | – |
| NC1CCC(n2cc(-c3nnc(C(=O)O)o3)nn2)CC1 (stereo not drawn) [Derivative 23] | 89 | 35 | 210 | – |
| NCCn1cc(-c2n[nH]c(=O)o2)nn1 [Derivative 18] | 345 | 250 | 550 | – |
| NC1CCC(n2cc(-c3noc(=O)[nH]3)nn2)CC1 (stereo not drawn) [Derivative 19] | 610 | 375 | 880 | – |
| NNC(=O)c1cn(C2CCNCC2)nn1 [Derivative 3] | 230 | 180 | 410 | – |
| O=C(O)c1nnc(-c2cn(C3CCNCC3)nn2)o1 [Derivative 21] | 100 | 35 | 150 | – |
| CCCCCC(=O)O [CA, Caproic Acid, reference compound] | – | – | – | IC50 ([1]; 96 h, read-out: IC50 from dose response curve, cell migration): 1340 µM; concentration at which cell migration was completely impaired ([1]; NSLCs, 20% plasma): 1400 µM |
| NCCCn1cc(C(=O)O)nn1 [Derivative 13] | 125 | 75 | 170 | – |
| NCCn1cc(-c2nnc(C(=O)O)o2)nn1 [Derivative 24] | 620 | 315 | 810 | – |
| NC(NO)c1cn(C2CCNCC2)nn1 (stereo not drawn) [Derivative 7] | 270 | 125 | 415 | inhibition of fibrinolysis mediated by tPA (in words) [2]: completely inhibit fibrinolysis |
| NC[C@H]1CC[C@H](C(=O)O)CC1 [TNA, Tranexamic Acid, reference compound] | – | – | – | IC50 [1, 5]: 438 µM; concentration at which cell migration was completely impaired ([1]; NSLCs, 20% plasma): 250 µM |
| NCCn1cc(-c2noc(=O)[nH]2)nn1 [Derivative 20] | 87 | 15 | 210 | – |
| NCCCn1cc(C(=O)NN)nn1 [Derivative 4] | 1200 | 800 | 2100 | – |
| NCCCn1cc(-c2noc(=O)[nH]2)nn1 [Derivative 6] | 650 | 375 | 800 | – |
| NCCn1cc(C(=O)NN)nn1 [Derivative 15] | 104 | 24 | 815 | – |
| NCCCn1cc(-c2nnc(C(=O)O)o2)nn1 [Derivative 22] | 120 | 50 | 210 | – |
